From patent publication US11679107B2 (Eisai R&D Management Co., Ltd., priority 2018, dated 2023)
Where two headings read alike, the source gives them in different places.

What was measured:
[1] = tested on: Ad2 variant pre-mRNAs spliced in HeLa S3 nuclear extracts; assay: In vitro splicing assay (IVS), RT-qPCR of spliced product; type: biochemical; details: for IC50: geometric mean; for Ratio Ad2.1/2.2: ratio of IVS IC50 Ad2.1 to Ad2.2
Experimental: (§1) Batch immobilization of anti-SF3B1 antibody (MBL) to anti-mouse PVT SPA scintillation beads (PerkinElmer) was prepared as follows: for every 2.5 mg of nuclear extracts, 5 μg anti-SF3B1 antibody and 1.5 mg of beads were mixed in 150 μl PBS. The antibody-bead mixture was incubated for 30 min at RT and centrifuged at 18,000 g for 5 min. 150 μl PBS was used to resuspend every 1.5 mg antibody-bead mixture. The beads were suspended and added to the prepared nuclear extracts. The slurry was incubated for 2 h at 4° C. with gentle mixing. The beads were then collected by centrifuging at 18,000 g for 5 min, and washed twice with PBS+0.1% Triton X-100. After a final centrifugation step, every 1.5 mg of beads was suspended with 150 μl of PBS. The SF3b complexes were tested for [^3H]-labelled pladienolide probe binding ([^3H]—PB), synthesized as previously described (Kotake et al., 2007). 100 μl binding reactions were prepared with 50 μl bead slurry and by adding varying concentrations of PB or PB—OH, and after 30 min pre-incubation, 2.5 nM [^3H]—PB was added. The mixture was incubated for 30 min, and luminescence signals were read using a MicroBeta2 Plate Counter (PerkinElmer). Prism 6 (Graphpad) was used for non-linear regression curve fitting of the data. • a. • b. HeLa nuclear extract preparation (for in vitro splicing modulation assay below) • c. HeLa S3 cell pellets were resuspended in hypotonic buffer (10 mM HEPES pH 7.9, 1.5 mM MgCl2, 10 mM KCl, 0.2 mM PMSF, and 0.5 mM DTT) and the suspension was brought up to a total of 5 packed cell volume (PCV). After centrifugation, the supernatant was discarded, and the cells were brought up to 3 PCV with hypotonic buffer and incubated on ice for 10 minutes. Cells were lysed using a dounce homogenizer and then centrifuged. The supernatant was discarded, and the pellet was resuspended with ½ packed nuclear volume (PNV) of low salt buffer (20 mM HEPES pH 7.9, 1.5 mM MgCl2, 20 mM KCl, 0.2 mM EDTA, 25% glycerol, 0.2 mM PMSF, 0.5 mM DTT), followed by ½ PNV of high salt buffer (same as low salt buffer except 1.4 M KCl was used). The nuclei were gently mixed for 30 minutes before centrifuging. The supernatant (nuclear extract) was then dialyzed into storage buffer (20 mM HEPES pH 7.9, 100 mM KCl, 0.2 mM EDTA, 20% glycerol, 0.2 mM PMSF, 0.5 mM DTT). Protein concentration was determined using NanoDrop 8000 UV-Vis spectrophotometer (ThermoFisher Scientific). • d. In vitro splicing assay (IVS)
All Ad2-derived (Pellizzoni et al., 1998) sequences were cloned into pcDNA3.1(+) vector (Promega) using 5′ EcoRI and 3′ XbaI restriction sites. The plasmids were linearized using XbaI and used as DNA templates in the in vitro transcription reactions. The FtzΔi intron-less plasmid (Luo and Reed, 1999) was linearized using EcoRI. All RNAs were in vitro transcribed and then purified using MEGAScript T7 (Invitrogen) and MegaClear (Invitrogen) kits, respectively. For splicing reactions using Ad2 variant pre-mRNAs, […] reactions were prepared using 8 μg nuclear extracts prepared from HeLa S3, 2 ng pre-mRNA, 0.2 ng FTZΔi, and varying concentrations of exemplary payloads or DMSO. After a 15 minute pre-incubation at 30° C., 1 μL splicing activation buffer (0.5 mM ATP, 20 mM creatine phosphate, 1.6 mM MgCl2) was added, and the reactions were incubated for 90 minutes at 30° C. The reactions were then quenched with 13 μL it DMSO, and 25 nL was used for RT-qPCR. RT-qPCR reactions were prepared using TaqMan RNA-to-CT 1-step kit (Life Technologies), RNA from splicing reactions, Ad2 (forward: […]; reverse: […]; probe: […]) and Ftz (forward: […]; reverse: […]; probe: […]) mRNA primer-probe sets. Prism 6 (Graphpad) was used for non-linear regression curve fitting of the formed spliced product and normalized to the control (DMSO) sample.

[2] = tested on: Panc 05.04 cells (SF3b K700E mutant); assay: Cell proliferation and viability, CellTiter-Glo, 72 hours; type: cell-based; details: for GI50: geometric mean
Experimental: (§2) Cell lines were maintained in RPMI-1640 (ATCC 30-2001) supplemented with 10% fetal bovine serum (FBS). The Panc lines were supplemented in addition with insulin and FBS up to 15% total.
(§3) Compounds for assay were prepared as stocks in 90% dimethyl sulfoxide (DMSO), assessed for purity by LC/MS, and serially diluted in DMSO using a low-volume liquid handler (VIAFLO ASSIST and VIAFLO II electronic 16-channel pipette, 0.5-12.5 μL) in an 11-point half-log serial dilution to create a master dose response (MDR) source used for all tests.
(§4) Transfer of compounds from the MDR source plate to cell assay-ready plates were accomplished directly by low-energy acoustic transfer (ATS100, EDC Biosystems). After transfer of compounds to the assay plate, the dose-response range experienced by cells was typically 10 μM-100 pM (5 logs), and final DMSO concentration in the assay was 0.1%, uniformly. Each assay plate was self-anchored containing vehicle/DMSO negative controls, medium-only/positive controls, and cidal control dose-responses of bortezomib and staurosporine. Assay-ready plates were heat-sealed and stored at −20° C. until used, no longer than one month.
(§5) A DMSO-matched time zero (T0) plate was read and then all other plates were incubated at 37° C. with 5% CO2 and 95% relative humidity until the end of assay. Cell proliferation and viability assays were performed 72 hours post-treatment depending on cell growth where at least one doubling would have occurred.
(§6) Assessment of viability and proliferation was by measurement of cell ATP content using CellTiter-Glo® Luminescent Cell Viability Assay reagent (Promega) according to the manufacturer's instructions (CellTiter-Glo® Luminescent Cell Viability Assay Technical Bulletin Instructions for Use of Product(s) G7570, G7571, G7572, G7573 Literature #TB288, Revised March 2015), using a microtiter plate reader (Envision, PE).
(§7) Cell proliferation was evaluated using the time zero (T0) signal as the positive control and the within-plate vehicle wells (DMSO) as the negative control. Data was converted to percent inhibition and falls into the range from −100% to 100% of growth where −100% equals a cidal response and 100% equals uninhibited or maximal growth. Cell growth at or near 0% is considered a static response.

[3] = tested on: NCI-H1568 cells (high MCL1); assay: as above; type: cell-based; details: for GI50: geometric mean
Experimental: as §2, §3, §4, §5, §6, §7

SF3b complexes = target: T1, SF3b complexes (Homo sapiens, UniProt O75533+Q7RTV0); assay: Scintillation proximity assay (SPA) with [3H]-labelled pladienolide probe; type: binding; details: SF3B1 (WT); geometric mean; read-out: SPA-ATS GMean IC50 (nM) SF3B1 (WT)
T1 construct: endogenous in cells; host or cells: Nuclear extracts; A HeLa S3 extract preparation is described for the in vitro splicing assay
Experimental: Scintillation Proximity Assay (SPA) with [^3-H]-Labelled Pladienolide Probe
as §1

[4] = Ad2.1 pre-mRNA substrate, read-out: qPCR-IVS-ATS GMean IC50 (nM) Ad2.1
[5] = Ad2.2 pre-mRNA substrate, read-out: qPCR-IVS-ATS GMean IC50 (nM) Ad2.2
[6] = 72 h, PANC0504.1, -100% = cidal, 0% = static, 100% = uninhibited growth
[7] = Panc 05.04, 72 h, read-out: CTGlo-ATS GMean GI50 (nM) 72 h PANC0504.1, 72 h, PANC0504.1
[8] = 72 h, NCIH1568.1, -100% = cidal, 0% = static, 100% = uninhibited growth
[9] = NCI-H1568, 72 h, read-out: CTGlo-ATS GMean GI50 (nM) 72 h NCIH1568.1, 72 h, NCIH1568.1
[10] = PANC0504.1 cells, 72 h, −100% cidal, 0% static, 100% maximal growth
[11] = Panc 05.04, 72 h, read-out: CTGlo-ATS GMean GI50 (nM) 72 h PANC0504.1, PANC0504.1 cells, 72 h
[12] = NCIH1568.1 cells, 72 h, −100% cidal, 0% static, 100% maximal growth
[13] = Panc 05.04, read-out: CTGlo-ATS GMean GI50 (nM) 72 h PANC0504.1, PANC0504.1 cells, 72 h
[14] = NCI-H1568, read-out: CTGlo-ATS GMean GI50 (nM) 72 h NCIH1568.1, NCIH1568.1 cells, 72 h

Row | SMILES | IC50 [1, 4] [nM] | IC50 [1, 5] [nM] | Ratio Ad2.1/2.2 [1] | CTGlo-ATS Mean MinResponse % 72 h PANC0504.1 [2, 6] [%] | GI50 [2, 7] [nM] | CTGlo-ATS Mean MinResponse % 72 h NCIH1568.1 [3, 8] [%] | GI50 [3, 9] [nM] | CTGlo-ATS Mean MinResponse % 72 h PANC0504.1 [2, 10] [%] | GI50 [2, 11] [nM] | GI50 ([3]; NCI-H1568, 72 h, read-out: CTGlo-ATS GMean GI50 (nM) 72 h NCIH1568.1, NCIH1568.1 cells, 72 h) [nM] | CTGlo-ATS Mean MinResponse % 72 h NCIH1568.1 [3, 12] [%] | GI50 [2, 13] [nM] | GI50 [3, 14] [nM] | IC50 (SF3b complexes) [nM]
1 | C/C(=C\c1cccc(COC(=O)N2CCC(O)CC2)c1)[C@H]1OC(=O)C[C@H](O)CC[C@H](C)[C@@H](OC(=O)N2CCN(C)CC2)/C=C/[C@@H]1C [Compound 261, [(2S,3S,4E,6R,7S,10R)-10-hydroxy-2-[(E)-1-[3-[(4-hydroxypiperidine-1-carbonyl)oxymethyl]phenyl]prop-1-en-2-yl]-3,7-dimethyl-12-oxo-1-oxacyclododec-4-en-6-yl] 4-methylpiperazine-1-carboxylate] | 23300 | 76.6 | 304.222 | −89.906 | 32.3 | −36.811 | 57.6 |  |  |  |  |  |  | 
2 | C/C(=C\c1cc(F)cc(N2CCC(O)CC2)c1)[C@H]1OC(=O)C[C@H](O)CC[C@H](C)[C@@H](OC(=O)N2CCN(C)CC2)/C=C/[C@@H]1C [Compound 30] | 19.1 | 11 |  |  |  |  |  | −75.997 | 7.02 | 5.89 | −78.664 |  |  | 
3 | C/C(=C\c1cc(F)cc(N2CCOCC2)c1)[C@H]1OC(=O)C[C@H](O)CC[C@H](C)[C@@H](OC(=O)N(C)Cc2ccncc2)/C=C/[C@@H]1C [Compound 47] | 16900 | 79.6 |  |  |  |  |  | −87.783 |  |  | −44.494 | 78.2 | 66.5 | 
4 | C/C(=C\c1ccc(F)c(N2CCOCC2)c1)[C@H]1OC(=O)C[C@H](O)CC[C@H](C)[C@@H](OC(=O)N2CCN(C)CC2)/C=C/[C@@H]1C [Compound 8] | 14200 | 42.2 |  |  |  |  |  | −94.207 | 19.3 |  |  |  |  | 
5 | C/C(=C\c1cc(F)cc(N2CCN(C(=O)Cn3cccn3)CC2)c1)[C@H]1OC(=O)C[C@H](O)CC[C@H](C)[C@@H](OC(=O)N2CCC(N(C)C)C2)/C=C/[C@@H]1C (stereo in doubt) [Compound 227, [(2S,3S,4E,6R,7S,10R)-2-[(E)-1-[3-fluoro-5-[4-(2-pyrazol-1-ylacetyl)piperazin-1-yl]phenyl]prop-1-en-2-yl]-10-hydroxy-3,7-dimethyl-12-oxo-1-oxacyclododec-4-en-6-yl] (3S)-3-(dimethylamino)pyrrolidine-1-carboxylate] |  |  |  |  |  | −81.522 | 2.37 |  |  |  |  |  |  | 3.25
6 | C/C(=C\c1ccc(S(=O)(=O)NC2CC2)c(F)c1)[C@H]1OC(=O)C[C@H](O)CC[C@H](C)[C@@H](OC(=O)N2CCN(C)CC2)/C=C/[C@@H]1C [Compound 90, [(2S,3S,4E,6R,7S,10R)-2-[(E)-1-[4-(cyclopropylsulfamoyl)-3-fluorophenyl]prop-1-en-2-yl]-10-hydroxy-3,7-dimethyl-12-oxo-1-oxacyclododec-4-en-6-yl] 4-methylpiperazine-1-carboxylate] | > 25000 | 168 |  |  |  |  |  | −12.315 |  |  | −8.495 | 141 | 107 | 
7 | C/C(=C\c1cccc(COC(=O)N2CCCC2CO)c1)[C@H]1OC(=O)C[C@H](O)CC[C@H](C)[C@@H](OC(=O)N2CCN(C)CC2)/C=C/[C@@H]1C (stereo in doubt) [Compound 259, [(2S,3S,4E,6R,7S,10R)-10-hydroxy-2-[(E)-1-[3-[[(2R)-2-(hydroxymethyl)pyrrolidine-1-carbonyl]oxymethyl]phenyl]prop-1-en-2-yl]-3,7-dimethyl-12-oxo-1-oxacyclododec-4-en-6-yl] 4-methylpiperazine-1-carboxylate] | > 25000 | 83.1 | 300.977 | −86.489 | 31.5 | −43.329 | 133 |  |  |  |  |  |  | 
